Results on two compounds are retold here after patent US10149478B2, “Biologically active formulation” (Endura S.P.A., priority 2005, dated 2018).

Structures are written as SMILES.

The data set concerns Bemisia tabaci (whitely) biotype B. Nature of the data set: Leaf dip bioassay, mortality assay for insecticide compounds (Example 20). Type of data set: in vivo. To be noted: for LC50% a.i. (*): quantity of pure insecticide achieving 50% mortality; for resistance factor: relative to non-resistant insects. The protocol:
The “leaf dip bioassay” used for testing the activity of insecticides against Bemisia tabaci (whitely) biotype B, was similar to that described by Cahill, M et al, Bull. Entomol. Res. 85, 181-187, 1995.
Cotton plants (Gossypium hirsutum L.) were grown without any exposure to the insecticides. The leaves were cut up into disc shapes and immersed in an aqueous solution of insecticide containing 0.01% of Agral then left to dry at 25° C.
Control leaves were immersed in Agral and distilled water only.
About 20 adult insects were placed onto the small discs of treated cotton leaf.
The insects were allowed to feed and maximum mortality was evaluated at 24 and 48 hours.
LC50% a.i. and LC99% a.i indicate the quantity of active ingredient (i.e pure insecticide) able to achieve mortality for 50% and 99% of the insects tested.

The mark [1] stands for this setting: adults on treated cotton leaf discs, maximum mortality evaluated at 24 and 48 hours.

For the compound `C/C(=N\C#N)N(C)Cc1ccc(Cl)nc1` [Acetamiprid], the resistance factor was found to be 21 times. Moreover, the “LC50% a.i. (*)” value under setting [1] was found to be 0.00038 ppm. Further, the “LC99% a.i. (*)” value (quantity of pure insecticide achieving 99% mortality, adults on treated cotton leaf discs, maximum mortality evaluated at 24 and 48 hours) is listed as 0.098 ppm.
Compound `O=[N+]([O-])NC1=NCCN1Cc1ccc(Cl)nc1` [Imidacloprid] gave a resistance factor of 2336 times. In addition, the “LC50% a.i. (*)” value under setting [1] was determined as 4.7 ppm.
